Assay results: ChEMBL document CHEMBL1140749, “Novel copper(II) complex of N-propyl-norfloxacin and 1,10-phenanthroline with enhanced antileukemic and DNA nuclease activities” (2008)
Values after ≈ are worked out from the molar mass of the structure shown.

How the values were obtained:
Type in all cases: functional
Escherichia coli = assay: Antibacterial activity against Escherichia coli
Pseudomonas aeruginosa = assay: Antibacterial activity against Pseudomonas aeruginosa
Staphylococcus aureus = assay: Antibacterial activity against Staphylococcus aureus

| Structure (SMILES) | MIC (Escherichia coli) [µg/mL] | MIC (Pseudomonas aeruginosa) [µg/mL] | MIC (Staphylococcus aureus) [µg/mL] |
| --- | --- | --- | --- |
| CCCN1CCN(c2cc3c(cc2F)c(=O)c(C(=O)O)cn3CC)CC1 | 4 (≈ 11.1 µM) | 4 (≈ 11.1 µM) | 16 (≈ 44.3 µM) |
| c1ccc(-c2ccccn2)nc1 [DIPYRIDYL] | 256 (≈ 1640 µM) | 256 (≈ 1640 µM) | 256 (≈ 1640 µM) |
| CCN1CCN(c2cc3c(cc2F)c(=O)c(C(=O)O)cn3C2CC2)CC1 [ENROFLOXACIN] | 1 (≈ 2.78 µM) | 1 (≈ 2.78 µM) | 8 (≈ 22.3 µM) |
| CCn1cc(C(=O)O)c(=O)c2cc3c(cc21)OCO3 [OXOLINIC ACID] | 1 (≈ 3.83 µM) | 16 (≈ 61.2 µM) | 16 (≈ 61.2 µM) |
| c1cnc2c(c1)ccc1cccnc12 [PHENANTHROLINE] | 32 (≈ 178 µM) | 32 (≈ 178 µM) | 32 (≈ 178 µM) |
